Experimental data: US20240290636A1, “SUBSTRATE TREATING METHOD, SUBSTRATE TREATING APPARATUS, AND TREATMENT LIQUID” (SCREEN Holdings Co., Ltd., priority 2021, published 2024)

Legend:
[1] = Vapor pressure of the sublimable substance; settings: absolute pressure
Procedure: The sublimable substance has a vapor pressure of 0.1 Pa or more and 1.0 Pa or less at normal temperatures. Here, the normal temperatures include a room temperature. The normal temperatures fall within a temperature range of 5° C. or more and 35° C. or less, for example. The normal temperatures fall within a temperature range of 10° C. or more and 30° C. or less, for example. In this specification, the value of vapor pressure is indicated as absolute pressure relative to absolute vacuum.

[2] = Text: The ability of the solvent to dissolve the sublimable substance is indicated, for example, by the solubility of the sublimable substance in the solvent. Hereinafter, the solubility of the sublimable substance in the solvent is appropriately referred to as solubility Rm. The solubility Rm is a limit amount of sublimable substance that is soluble in a certain amount of solvent. As the solubility Rm increases, the ability of the solvent to dissolve the sublimable substance increases. Therefore, the solubility Rm is preferably high.
In general, the solubility Rm varies with temperature. The treatment liquid is used at normal temperatures. Therefore, the solubility Rm is preferably high at normal temperatures. The solubility Rm is preferably 150 vol % or more at normal temperatures.
For example, when the maximum volume of the sublimable substance soluble in the solvent of volume Q2c is Q1m, the solubility Rm is a ratio of the maximum volume Q1m to the volume Q2c. Specifically, the solubility Rm is defined by the following formula.

Row | Structure (SMILES) | vapor pressure at 25° C. [1] [Pa] | solubility Rm at 25° C. [2] [vol %] | solubility Rm at normal temperatures [2] [vol %]
1 | ON=C1CCCCC1 [cyclohexanone oxime] | 1.45 | – | –
2 | CC(=NO)c1ccccc1 [acetophenone oxime] | 0.27 | 186 | ≥ 150
3 | CC(=NO)C(C)(C)C [pinacolone oxime] | 35.3 | – | –
